In patent US20250034200A1, “Prodrugs of Neurosteroid Analogs and Uses Thereof” (priority 2021, published 2025):
Counter-ions that a name gives are not always drawn. Like-named read-outs stand apart in the source and are kept apart here.

Columns and labels:
[1] = male, Sprague Dawley, rat, in vivo
Protocol: (§1) Test System—Healthy male Sprague Dawley rats (8-12 weeks old) weighing between 200 to 250 g were procured from Global, India. […] Temperature and humidity were maintained at 22±3° C. and 30-70%, respectively and illumination was controlled to give a sequence of 12 h light and 12 h dark cycle. Temperature and humidity were recorded by auto-controlled data logger system. All the animals were provided with laboratory rodent diet (Envigo Research private Ltd, Hyderabad). Reverse osmosis water treated with ultraviolet light was provided ad libitum.
(§2) Design—Rats (n=3 per treatment group, serial sampling) were administered a solution of either normal saline vehicle or test compound in normal saline at 2 mg/kg (IV) or 10 mg/kg (IM) with a dosing volume of 5 mL/kg (IV) or 1 mL/kg (IM).
(§3) Sample Collection—Blood samples (approximately 60 μL) were collected under light isoflurane anesthesia (Surgivet®) from retro orbital plexus from a set of three rats at 0.08, 0.25, 0.5, 1, 2, 4, 6, 8 and 10 h (IV) or 0.25, 0.5, 1, 2, 4, 6, 8 and 10 h (IM). Immediately after blood collection, plasma was harvested by centrifugation 4000 rpm, 10 min at 40° C. and samples were stored at −70±10° C. until bioanalysis.
(§4) Data Analysis—Concentrations of the test compound and its parent compound, progesterone C20-oxime, in rat plasma were determined by fit-for-purpose LC-MS/MS method by Sai Life Sciences. […] Cmax represents the mean observed maximum concentration of analyte. Tmax represents the average time at observed Cmax. Areas under the curve (AUC0-last) were calculated via the linear trapezoidal rule using GraphPad Prism v9.

[2] = Aqueous stability assay (HPLC, pseudo first-order half-life); format: physicochemical; conditions: for stability in the acidic aqueous mediums: pH 4.0 and 5.5
[3] = Plasma stability assay (LC-MS/MS); format: in vitro ADME; conditions: for half-life / half-life at 3 µM: read-out: Plasma t1/2 (converted)
Method in brief: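 Compound (3 μM final; 0.03% DMSO, up to 0.6% methanol) was incubated in human plasma at 37° C for up to 240 min, sampled at 0, 15, 30, 60, 120, 180 and 240 min in duplicate. Samples were quenched in cold acetonitrile or methanol with internal standard and quantified by LC-MS/MS (ESI+, MRM). Stability was derived from the slope of ln(% parent remaining) versus time.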

[4] = Nephelometry (aqueous solubility); format: physicochemical; conditions: DPBS with 1% DMSO, aqueous buffer, kinetic from dmso stock, DPBS pH 7.0-7.3, 1% DMSO, 25° C.
From the text: Well A1 of the plate contained 100% DMSO.

[5] = test system: rat disease model of acute TBI; assay: Edema assay in rat model of acute TBI (controlled cortical impact); format: in vivo; conditions: for reduced brain edema: 10 mg/kg IM at 1 and 6 h post-TBI, edema at 24 h
Protocol: A prodrug dose of 10 mg/kg was chosen and administered IM at 1 and 6 hours post-injury. Prodrug dosage is equimolar±5% with respective to the parent compound.
Subjects—Male SD rats weighing 250-350 g at the time of injury were used for the efficacy study, which was conducted in our facility at Emory University. The rats were maintained on a reverse 12:12 light-dark cycle at 22±1° C. with appropriate humidity levels. After one week of quarantine the rats were handled at least 3 times prior to surgery. This study was conducted in a facility approved by the American Association for the Accreditation of Laboratory Animal Care (AAALAC) in accordance with all National Institutes of Health guidelines. All experimental animal procedures were approved by the Emory University Institutional Animal Care and Use Committee.
Contusion Injury—Rats were anesthetized using isoflurane gas (5% induction, 1.5% maintenance, 700 mmHg N2O, 500 mmHg O2) and then mounted in a Kopf stereotaxic device (David Kopf Instruments, Tujunga, CA, USA). The scalp incision area was shaved and sterilized with Betadine® antiseptic and 70% isopropanol. Physiological parameters were monitored with pulse oximetry (SurgiVet model V3304): heart rate was maintained above ˜300 beats per minute and SpO2 kept above 90%. Core body temperature (˜37° C.) was maintained with a homeothermic heating blanket system (Harvard Apparatus, Holliston, MA, USA). Under aseptic conditions, a midline incision was made into the skin and fascia covering the skull. Cotton swabs were used to staunch and clean any fascial bleeding. […]
Treatment—Animals were randomly assigned to one of four treatment groups. […] Percent change in brain tissue water content was measured.
Edema Assay—Edema was measured at 24 h after surgery. […] The percent water content was calculated by [(wet wt-dry wt)/wet wt]×100. The percent difference in water content between the anterior peri-contusional and the posterior distal section was calculated for each sample by: [(anterior H2O %-posterior H2O %)/(posterior H2O %)]×100.

[6] = Rat plasma pharmacokinetic study; conditions: IV and IM routes
Protocol: as §1, §2, §3, §4

[7] = acetate buffer pH 4.0, read-out: Acetate buffer (pH 4.0) t1/2 (converted)
[8] = acetate buffer pH 5.5, read-out: Acetate buffer (pH 5.5) t1/2 (converted)
[9] = buffer, DPBS pH 7.0-7.3, 1 mg/mL, room temperature, read-out: PBS t1/2 (converted)
[10] = buffer, DPBS pH 7.0-7.3, 1 mg/mL, room temperature, d (days), read-out: PBS t1/2 (converted)

SMILES	half-life [2, 7]	half-life [2, 8]	stability in the acidic aqueous mediums [2]	stability in human plasma [3]	formation of the corresponding oxime (progesterone C20-oxime) ([3]; human plasma)	half-life ([3]; human plasma, 37° C., 3 μM)	solubility at 90 min [4]	reduced brain edema [5]	half-life at 3 µM ([3]; human plasma, 37° C., 3 μM)	other results
C/C(=N/OCOP(=O)([O-])[O-])[C@H]1CC[C@H]2[C@@H]3CCC4=CC(=O)CC[C@]4(C)[C@H]3CC[C@]12C.[Na+].[Na+] [EIDD-1723]										increase in the dose-corrected exposure to parent progesterone C20-oxime, IM compared to the IV route [1]: 3 fold; Parent AUClast ([1]; im, 10 mg/kg): 753 ± 29 ng·h/mL; Parent AUClast ([1]; iv, 2 mg/kg): 48 ± 6 ng·h/mL; Parent Cmax ([1]; iv, 2 mg/kg): 219 ng/mL
CNCCN(C)C(=O)O/N=C(\C)[C@H]1CC[C@H]2[C@@H]3CCC4=CC(=O)CC[C@]4(C)[C@H]3CC[C@]12C [32b, (E)-9-((8S,9S,10R,13S,14S,17S)-10,13-dimethyl-3-oxo-2,3,6,7,8,9,10,11,12,13,14,15,16,17-tetradecahydro-1H-cyclopenta[a]phenanthren-17-yl)-5-methyl-7-oxa-2,5,8-triazadec-8-en-6-one hydrochloride]	96 days	80 days	stable	unstable	observed	1.5 h	> 750 µM	31%		PBS t1/2 ([2]; DPBS pH 7.0-7.3, 1 mg/mL, room temperature): 46.9 ± 0.8 h
C/C(=N\OC(=O)N(C)C[C@@H]1CCCN1)[C@H]1CCC2[C@@H]3CCC4=CC(=O)CC[C@]4(C)[C@H]3CC[C@@]21C.Cl (stereo partly drawn) [32j, (8S,9S,10R,13S,17S)-10,13-dimethyl-17-((E)-1-(((methyl(((S)-pyrrolidin-2-yl)methyl)carbamoyl)oxy)imino)ethyl)-1,2,6,7,8,9,10,11,12,13,14,15,16,17-tetradecahydro-3H-cyclopenta[a]phenanthren-3-one hydrochloride]	48 days	2.4 days	stable	unstable	observed	< 0.1 h		40%		half-life [2, 9]: 0.0792 ± 0.00417 days; reducing brain edema, comparison with EIDD-1723 ([5]; 10 mg/kg dose IM): equally efficacious; formation of parent progesterone C20-oxime [6]: rapid and extensive
C/C(=N\OC(=O)NC[C@@H]1CCCN1)[C@H]1CCC2[C@@H]3CCC4=CC(=O)CC[C@]4(C)[C@H]3CC[C@@]21C (stereo partly drawn) [32g, (8S,9S,10R,13S,17S)-10,13-dimethyl-17-((E)-1-((((((S)-pyrrolidin-2-yl)methyl)carbamoyl)oxy)imino)ethyl)-1,2,6,7,8,9,10,11,12,13,14,15,16,17-tetradecahydro-3H-cyclopenta[a]phenanthren-3-one hydrochloride]							> 750 µM		9.6 h	half-life at 1 mg/mL [2, 10]: 396 h
C/C(=N\OC(=O)NCCN(C)C)[C@H]1CC[C@H]2[C@@H]3CCC4=CC(=O)CC[C@]4(C)[C@H]3CC[C@]12C.Cl [compound 34, (E)-9-((8S,9S,10R,13S,14S,17S)-10,13-dimethyl-3-oxo-2,3,6,7,8,9,10,11,12,13,14,15,16,17-tetradecahydro-1H-cyclopenta[a]phenanthren-17-yl)-2-methyl-7-oxa-2,5,8-triazadec-8-en-6-one hydrochloride]							> 750 µM			half-life [2, 10]: 32.8 days; Plasma t1/2 ([3]; human plasma, 37° C., 3 μM): >3.5 h
CNCCN(CCO)C(=O)O/N=C(\C)[C@H]1CC[C@H]2[C@@H]3CCC4=CC(=O)CC[C@]4(C)[C@H]3CC[C@]12C [32c, 2-((((((E)-1-((8S,9S,10R,13S,14S,17S)-10,13-dimethyl-3-oxo-2,3,6,7,8,9,10,11,12,13,14,15,16,17-tetradecahydro-1H-cyclopenta[a]phenanthren-17-yl)ethylidene)amino)oxy)carbonyl)(2-hydroxyethyl)amino)-N-methylethan-1-aminium chloride]							> 500 µM		1.7 h	half-life at 1 mg/mL [2, 9]: 24.8 ± 1.1 h
